# In patent US20220324912A1, “THERAPEUTIC PEPTIDES” (COHBAR, INC., priority 2019, published 2022):
# Non-standard residues stand in square brackets, D forms with d. Residues, ends and D or L forms follow the SMILES beside them. No end group written: not given here.
# Tests used:
# 3T3-L1 adipocytes = assay: Free Fatty Acid Levels in 3T3-L1 Adipocytes (Example 4, 25 μM); assay type: cell-based, mouse; details: for Free fatty acid levels, Percent of Control Value (percent isoproterenol control): peptides 25 μM, 20-22 hours then 3 hours with isoproterenol 1 nM, 3T3-L1 adipocytes
# Method: Following 12-15 days' differentiation, test peptides were added to a final concentration of 25 μM and incubated for 20-22 hours in Adipocyte Maintenance Medium. After 20-22 hours, isoproterenol (1 nM) was added to all wells except untreated controls and test peptides were replenished. Cells were incubated for a further 3 hours in Assay Buffer (Zen-Bio). Free fatty acid concentrations in the media were determined using a Free Fatty Acid Assay Kit (Zen-Bio) according to the manufacturer's instructions using a plate reader (540 nm). Absorbance values were corrected for untreated background and expressed relative to isoproterenol treated cells. Treatment with isoproterenol (1 nM) alone was used as the free fatty acid level stimulatory control. The relative standard deviation of the isoproterenol control was <10%. […] Free fatty acid levels for insulin (100 nM) treatment were <5% of the isoproterenol control value.
# DIO mice [1] = assay: Effects in Diet Induced Obese (DIO) mice, once daily subcutaneous, 10 days (Example 9); assay type: in vivo, mouse; details: for Difference from Vehicle Control: Decrease from Baseline in Blood Glucose / Difference from Vehicle Control: Decrease from Baseline in Body Weight / Difference from Vehicle Control: Decrease from Baseline in Fat Mass: male DIO mice
# Method: C57BL/6 mice were maintained on a high fat diet for 18 weeks to develop diet induced obesity. Animals were randomized to treatment groups based on blood glucose levels and body weight. The peptide of SEQ ID NO: 9 was administered to two groups of male DIO mice once daily by subcutaneous injection at doses of 5.0 or 15 mg/kg/dose for 10 days (N=8 animals per treatment group). An additional group of male DIO mice (n=8) received vehicle (water) alone. Body weight, blood glucose levels and food intake were monitored. Body mass distribution (fat vs lean) was determined by quantitative whole body NMR prior to dosing and at the end of dosing.
# [2] = Stability in Mouse Plasma; assay type: in vitro ADME; details: pooled mouse plasma, 37° C., peptides 100 DM; for remaining at 0.25 h, 100 DM: 15 min; for remaining at 0.5 h, 100 DM: 30 min; for remaining at 1 h, 100 DM: 60 min; for remaining at 2 h, 100 DM: 120 min; for remaining at 3 h, 100 DM: 180 min
# Method: Peptides (100 DM) were incubated in pooled mouse plasma at 37° C. and samples were removed and immediately analyzed for the concentration of intact peptide by LC/MS/MS over the course of 3 hours. The percent of peptide remaining in plasma at each time point was calculated relative to the initial peak area (Table 9).
# C2C12 cells [3] = assay: Cellular ROS Levels Induced by TBHP in C2C12 Cells (DCFDA); assay type: cell-based, mouse
# Method: The protective or synergistic effect of the peptides on cellular levels of reactive oxygen species (ROS) induced by oxidative stress can be assessed using an assay of ROS in cultured cells such as mouse myoblasts exposed to a suitable oxidative stress. Peptides were initially prepared as 10 mM stock in DMSO, diluted to 1 mM in H2O, and added at a final concentration of 10 μM (0.1% DMSO). […] TBHP was used at final concentration of 100 μM. Sulforaphane at final concentration of 10 µM was used as a protective control against TBHP induced ROS production. […] C2C12 cells were grown in DMEM supplemented with 20% FBS with 100 IU/ml penicillin and 100 μg/ml streptomycin. […] C2C12 cells were seeded at 7,500 cells per well on 96-well plates. […] After 18-20 hours of incubation the cells were loaded with DCFDA for 45 min. TBHP at 100 μM was then added to the appropriate wells for 1 hour. ROS activity was determined using a DCFDA Cellular ROS Detection Assay kit (Abcam, Cambridge, Mass.) according to the manufacturer's instructions. Fluorescence in each sample well on the plate was measured using a Cytation 3 plate reader at Ex/Em=485/535 nm (BioTek, Winooski, Vt.). Activity was calculated relative to TBHP control. The relative standard deviation of the sulforaphane control was <20%. The ROS level produced by the sulforaphane control in the presence of TBHP was 52% of the TBHP control.
# 3T3-L1 mouse adipocytes = assay: Free Fatty Acid Levels in 3T3-L1 Mouse Adipocytes (Example 12, 10 μM); assay type: cell-based
# Method: The effect of the peptides on fatty acid metabolism can be assessed using an assay of free fatty acid levels in cultured cells such as mouse adipocytes. Peptides were initially prepared as 10 mM stock in DMSO, diluted to 1 mM in H2O, and used at a final concentration of 10 μM (0.1% DMSO). […] After 20-22 hours, 1 nM isoproterenol was added to all wells except untreated controls and test peptides were replenished. Insulin at 100 nM was added to control wells. […] Free fatty acid concentrations in the media were determined using a Free Fatty Acid Assay kit (Zen-Bio) according to the manufacturer's instructions using a Cytation 3 plate reader at 540 nm (BioTek, Winooski, Vt.). Absorbance values were corrected for untreated background and expressed relative to isoproterenol treated cells. Treatment with isoproterenol (1 nM) alone was used as the free fatty acid level stimulatory control. The relative standard deviation of the isoproterenol control was <10%. […] Free fatty acid levels for insulin (100 nM) treatment were <5% of the isoproterenol control value.
# C2C12 cells [4] = assay: Cell Proliferation in C2C12 Cells (Cyquant DNA dye); assay type: cell-based, mouse
# Method: The effect of the peptides on cell proliferation was assessed using a DNA dye binding assay in cultured cells such as mouse myoblast cells. Peptides were initially prepared as 10 mM stock in DMSO, diluted to 1 mM in H2O, and added at a final concentration of 10 μM (0.1% DMSO). Lovastatin was used as a growth arrest control at final concentration of […]. […] C2C12 cells were grown in DMEM supplemented with 20% FBS with 100 IU/ml penicillin and 100 μg/ml streptomycin. […] C2C12 cells were seeded at 800 cells per well on 96-well plates. […] Cell proliferation was determined using Cyquant Direct Nucleic Acid Stain (Thermo Fisher Scientific, Waltham, Mass.) according to the manufacturer's instructions. Fluorescence for each sample well on the plate was measured using a Cytation 3 plate reader at Ex/Em=495/535 nm (BioTek, Winooski, Vt.). Activity was calculated relative to 0.1% DMSO untreated control. The relative standard deviation for the lovastatin control was <27%. The cell proliferation for the lovastatin control was <25% of the value for untreated control.
# DIO mice [5] = assay: Metabolic parameters in DIO mice, twice daily intraperitoneal, 10 days (Example 16); assay type: in vivo, mouse; details: 5 mg/kg, male DIO mice
# Method: Male C57BL/6 mice were maintained on a high fat diet for 18 weeks to develop diet induced obesity. Animals were randomized to treatment groups based on blood glucose levels and body weight. The peptides of the invention were administered to groups of male DIO mice twice daily by intraperitoneal injection at a dose of 5 mg/kg/dose for 10 days (N=8 animals per treatment group). An additional group of male DIO mice (n=8) received vehicle (water) alone administered twice daily by intraperitoneal injection. Body weight, blood glucose levels and food intake were monitored. Body mass distribution (fat vs lean) was determined by quantitative whole body NMR prior to dosing and at the end of dosing.
molecule,measurement,setting,value
26 (VVKGPLSEGGHPWGREGI) [compound 26],"Free fatty acid levels, Percent of Control Value (percent isoproterenol control)",3T3-L1 adipocytes,129%
32 (W[dA]IDEKAVEASGE) [compound 32],"Free fatty acid levels, Percent of Control Value (percent isoproterenol control)",3T3-L1 adipocytes,102%
RLPGS(dA)ILTNPVLGWVWV (RLPGS[dA]ILTNPVLGWVWV) [SEQ ID NO: 9],Difference from Vehicle Control: Decrease from Baseline in Blood Glucose,DIO mice [1]; 5.0 mg/kg/dose,7.0 mg/dL
same,Difference from Vehicle Control: Decrease from Baseline in Body Weight,DIO mice [1]; 5.0 mg/kg/dose,1.79%
same,Difference from Vehicle Control: Decrease from Baseline in Fat Mass,DIO mice [1]; 5.0 mg/kg/dose,0.56 g
same,Difference from Vehicle Control: Decrease from Baseline in Blood Glucose,DIO mice [1]; 15.0 mg/kg/dose,18.0 mg/dL
same,Difference from Vehicle Control: Decrease from Baseline in Body Weight,DIO mice [1]; 15.0 mg/kg/dose,1.96%
same,Difference from Vehicle Control: Decrease from Baseline in Fat Mass,DIO mice [1]; 15.0 mg/kg/dose,0.86 g
same,Body weight loss compared to vehicle (in words),DIO mice [1]; 5.0 or 15 mg/kg/dose,greater body weight loss
same,Decrease in fat mass from baseline compared to vehicle (in words),DIO mice [1]; 5.0 or 15 mg/kg/dose,greater decrease in fat mass
same,Reduction in blood glucose compared to vehicle (in words),DIO mice [1]; 5.0 or 15 mg/kg/dose,greater reduction in blood glucose
3 (LAVRRTARAIG) [compound 3],"Free fatty acid levels, Percent of Control Value (percent isoproterenol control)",3T3-L1 adipocytes,91%
CC[C@H](C)[C@H](NC(=O)[C@@H](C)NC(=O)[C@H](CO)NC(=O)CNC(=O)[C@@H]1CCCN1C(=O)[C@H](CC(C)C)NC(=O)[C@@H](N)CCCNC(=N)N)C(=O)N[C@@H](CC(C)C)C(=O)N[C@H](C(=O)N[C@@H](CC(N)=O)C(=O)N1CCC[C@H]1C(=O)N[C@H](C(=O)N[C@@H](CC(C)C)C(=O)NCC(=O)N[C@@H](Cc1c[nH]c2ccccc12)C(=O)N[C@H](C(=O)O)C(C)C)C(C)C)[C@@H](C)O [compound 10] (H-RLPGS[dA]ILTNPVLGWV-OH),% Remaining at 0 min,[2],100%
same,"remaining at 0.25 h, 100 DM",[2],76.5%
same,"remaining at 0.5 h, 100 DM",[2],58.1%
same,"remaining at 1 h, 100 DM",[2],44.4%
same,"remaining at 2 h, 100 DM",[2],18.1%
same,"remaining at 3 h, 100 DM",[2],8.9%
28 (VKAPLSEGGHPWGREG) [compound 28],"Free fatty acid levels, Percent of Control Value (percent isoproterenol control)",3T3-L1 adipocytes,135%
"C[S+]([O-])CCCCN=C=S (stereo not shown) [sulforaphane, reference compound]","ROS level in the presence of TBHP, % of the TBHP control",C2C12 cells [3]; sulforaphane 10 µM,52%
23 ([dA]FQKTHNLNQHNHPQ[dA]N) [compound 23],"Free fatty acid levels, Percent of Control Value (percent isoproterenol control)",3T3-L1 adipocytes,114%
21 (TFQKTHNLNQHNHPQPNY) [compound 21],"Free fatty acid levels, Percent of Control Value (percent isoproterenol control)",3T3-L1 adipocytes,91%
14 (MRLPGPAILTNPVLGWVWV) [compound 14],"Cellular ROS levels induced by TBHP, Percent of Control","C2C12 cells [3]; peptides 10 μM, 18-20 hours, then TBHP 100 μM 1 hour, relative to TBHP control",106.0%
same,"Free fatty acid levels, Percent of Isoproterenol Control Activity","3T3-L1 mouse adipocytes; peptides 10 μM, 20-22 hours then 3 hours with isoproterenol 1 nM, 3T3-L1 mouse adipocytes",80.8%
same,"Cell proliferation, Percent of Control","C2C12 cells [4]; peptides 10 μM, 72 hours with readdition every 24 hours, relative to 0.1% DMSO control",93.2%
same,Difference from Vehicle Control: Decrease from Baseline in Blood Glucose,DIO mice [5],-6.12 mg/dL
same,Difference from Vehicle Control: Decrease from Baseline in Body Weight,DIO mice [5],−2.48%
same,Difference from Vehicle Control: Decrease from Baseline in Fat Mass,DIO mice [5],-0.93 g
5 (LAVRRTARA[dA]) [compound 5],"Free fatty acid levels, Percent of Control Value (percent isoproterenol control)",3T3-L1 adipocytes,109%
CC[C@H](C)[C@H](NC(=O)[C@H](C)NC(=O)[C@H](CO)NC(=O)CNC(=O)[C@@H]1CCCN1C(=O)[C@H](CC(C)C)NC(=O)[C@@H](N)CCCNC(=N)N)C(=O)N[C@@H](CC(C)C)C(=O)N[C@H](C(=O)N[C@@H](CC(N)=O)C(=O)N1CCC[C@H]1C(=O)N[C@H](C(=O)N[C@@H](CC(C)C)C(=O)NCC(=O)N[C@@H](Cc1c[nH]c2ccccc12)C(=O)N[C@H](C(=O)N[C@@H](Cc1c[nH]c2ccccc12)C(=O)N[C@H](C(=O)O)C(C)C)C(C)C)C(C)C)[C@@H](C)O [compound 8] (H-RLPGSAILTNPVLGWVWV-OH),% Remaining at 0 min,[2],100%
same,"remaining at 0.25 h, 100 DM",[2],84.9%
same,"remaining at 0.5 h, 100 DM",[2],82.7%
same,"remaining at 1 h, 100 DM",[2],70.9%
same,"remaining at 2 h, 100 DM",[2],58.7%
same,"remaining at 3 h, 100 DM",[2],45%
31 (WAIDEKAVEASGE) [compound 31],"Free fatty acid levels, Percent of Control Value (percent isoproterenol control)",3T3-L1 adipocytes,115%
22 ([dA]FQKTHNLNQHNHPQPNY) [compound 22],"Free fatty acid levels, Percent of Control Value (percent isoproterenol control)",3T3-L1 adipocytes,135%
33 (W[dA]IDEKAVE[dA]SGE) [compound 33],"Free fatty acid levels, Percent of Control Value (percent isoproterenol control)",3T3-L1 adipocytes,92%
insulin [reference compound],"Free fatty acid levels, % of isoproterenol control value","3T3-L1 mouse adipocytes; insulin 100 nM, Example 12",< 5%
same,"Free fatty acid levels, % of isoproterenol control value","3T3-L1 adipocytes; insulin 100 nM, Example 4",< 5%
"CC[C@H](C)C(=O)O[C@H]1C[C@@H](C)C=C2C=C[C@H](C)[C@H](CC[C@@H]3C[C@@H](O)CC(=O)O3)[C@H]21 [lovastatin, reference compound]","Cell proliferation, % of the value for untreated control","C2C12 cells [4]; lovastatin 10 μM, 72 hours",< 25%
27 (VVKGPLSEGGHPWGREG) [compound 27],"Free fatty acid levels, Percent of Control Value (percent isoproterenol control)",3T3-L1 adipocytes,89%
4 (LAVRRTARAI) [compound 4],"Free fatty acid levels, Percent of Control Value (percent isoproterenol control)",3T3-L1 adipocytes,102%
CC[C@H](C)[C@H](NC(=O)[C@@H](C)NC(=O)[C@H](CO)NC(=O)CNC(=O)[C@@H]1CCCN1C(=O)[C@H](CC(C)C)NC(=O)[C@@H](N)CCCNC(=N)N)C(=O)N[C@@H](CC(C)C)C(=O)N[C@H](C(=O)N[C@@H](CC(N)=O)C(=O)N1CCC[C@H]1C(=O)N[C@H](C(=O)N[C@@H](CC(C)C)C(=O)NCC(=O)N[C@@H](Cc1c[nH]c2ccccc12)C(=O)N[C@H](C(=O)N[C@@H](Cc1c[nH]c2ccccc12)C(=O)N[C@H](C(=O)O)C(C)C)C(C)C)C(C)C)[C@@H](C)O [compound 9] (H-RLPGS[dA]ILTNPVLGWVWV-OH),% Remaining at 0 min,[2],100%
same,"remaining at 0.25 h, 100 DM",[2],90.5%
same,"remaining at 0.5 h, 100 DM",[2],81%
same,"remaining at 1 h, 100 DM",[2],72%
same,"remaining at 2 h, 100 DM",[2],56.5%
same,"remaining at 3 h, 100 DM",[2],46.6%
